Laboratory results: patent publication US20030135033A1, “Compounds and methods for the identification and/ or validation of a target” (priority 2002, published 2003)

Assays:
PTEN mRNA [1] = assay: Immunoblot of phosphorylated Akt after GeneBloc transfection of PTEN negative PC-3 cells; type: cell-based, human; settings: PC-3 cells (PTEN negative), 30 nM, 48 h
Procedure: More particularly, HeLa cells (380.000 cells/plate) and PC-3 cells (450.000 cells/plate) were transfected in parallel on 10 cm plates. Each cell line was treated for 48 h in duplicate samples with 30 nM of PTEN GeneBloc 53 or GBC. The cell extracts were analyzed by immunoblotting for the relative amounts of p110, PTEN and phosphorylated Akt (P*-Akt) as indicated on the right. The band which migrates just above the PTEN signal was caused by unspecific reaction of the secondary antibody. […]
Cells were washed twice with cold phosphate-buffered saline and lysed at 4° C. in lysis buffer containing 20 mM Tris (pH 7.5), 137 mM NaCl, 15% (vol/vol) glycerol, 1% (vol/vol) Nonidet P-40 (NP-40), 2 mM phenylmethylsulfonyl fluoride, […], 20 mM leupeptin, 2 mM benzamidine, 1 mM sodium vanadate, 25 mM […]-glycerol phosphate, 50 mM NaF and 10 mM NaPPi. Lysates were cleared by centrifugation at 14,000× g for 5 minutes and aliquots of the lysates were analyzed for protein expression by Western-blotting: Samples were separated by SDS-PAGE and transferred to nitrocellulose-filters (Schleicher & Schuell). […] Bound antibody was detected using anti-mouse- or anti-rabbit-conjugated horse radish peroxidase (Transduction Laboratories, BD) in TBST, washed, and developed using the SuperSignal West Dura (Pierce) or ECL (Amersham) chemoluminescence substrates. […]

PTEN mRNA [2] = assay: Relative PTEN RNA level by Taqman analysis; type: cell-based, rat; settings: 3Y1 cells, parallel samples of BrdU experiment
Procedure: The RNA of cells transfected in 96-wells was isolated and purified using the Invisorb RNA HTS 96 kit (InVitek GmbH, Berlin). Inhibition of PTEN mRNA expression was detected by real time RT-PCR (Taqman) analysis using PTEN 5′ primer […] (SEQ ID No. 47), PTEN 3′ primer […] (SEQ ID No. 48) and the Taqman probe Fam-[…]-Tamra (SEQ ID No. 34). The reaction was carried out in 50 μl and assayed on the ABI PRISM 7700 Sequence detector (Applied Biosystems) according to the manufacturer's instructions under the following conditions: 48° C. for 30 min, 95° C. for 10 min, followed by 40 cycles of 15 sec at 95° C. and 1 min at 60° C.
3Y1 cells were used, because these untransformed rat fibroblasts are very sensitive to transfection conditons and are prone to arrest or even undergo apoptosis. Subconfluent 3Y1 cells in 96 wells were treated with PTEN GeneBloc 48, GeneBloc 53 or GBC as a control. On day 2 the cells were synchronized in low serum. During days 3 and 4 the cells were released into the cell cycle by serum stimulation at various time points. BrdU was added for the last 2 h of incubation. Untreated cells and cells that were treated with Aphidicolin for 24 h were used as controls. RNA knock down was analyzed in parallel samples. The rate of synthesis was determined via the amount of incorporated BrdU.

**Q.** Which results are given for “ucuccuuTTGTTTCTGcuaacga (UCUCCUUTTGTTTCTGCUAACGA; chemistry not fully specified) [PTEN 53, third generation antisense oligonucleotide (GeneBloc) against PTEN]”?
**A.** phosphorylated Akt (P*-Akt) (immunoblot) (PTEN mRNA [1]): generate phosphorylated Akt irrespective; phosphorylated Akt (P*-Akt) (immunoblot) (PTEN mRNA [1]; listed as PTEN GeneBloc 53): had no effect; PTEN mRNA level (PTEN/actin RNA) (PTEN mRNA [2]): remained downregulated
